Where a name gives a salt, the structure may show the parent alone.
Target: human FXa (Homo sapiens, UniProt P00742)
Test: Inhibitory action of human activated blood coagulation factor X (FXa)
Format: biochemical
Details: concentration inhibiting FXa activity by 50%; substrate S-2765, 37° C., absorbance at 405 nm
Protocol: (1) Inhibitory Action of Human Activated Blood Coagulation Factor X (FXa):
Test method: A solution (225 μL) of 0.05M tris-hydrochloric acid buffers (pH=8.3) containing 0.145 M of sodium chloride and 2 mM of calcium chloride, a test compound dissolved in dimethyl sulfoxide (5 μL) and human FXa (10 μL, 0.3 unit/ml) were added to a 96-well microplate and reacted at 37° C. for about 10 minutes, and then a substrate (10 μL, 3 mM, S-2765) was added to be reacted at 37° C. for 10 minutes. Then, after aqueous 50% acetic acid (25 μL) was added there to stop the reaction, the change of absorbance at 405 nm was measured by a microplatereader, and a concentration inhibiting FXa activity by 50% (IC50) was calculated.

human FXa, sequence (P00742 235-488 limits assumed): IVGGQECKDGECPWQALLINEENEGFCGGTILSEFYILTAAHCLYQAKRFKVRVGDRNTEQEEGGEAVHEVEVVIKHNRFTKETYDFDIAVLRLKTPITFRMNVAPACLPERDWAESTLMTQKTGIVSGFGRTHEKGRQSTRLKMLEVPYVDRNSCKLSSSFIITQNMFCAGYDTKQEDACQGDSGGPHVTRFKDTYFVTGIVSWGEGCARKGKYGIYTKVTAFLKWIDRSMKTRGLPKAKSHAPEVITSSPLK
human FXa, sequence (P00742 41-179 partner limits assumed): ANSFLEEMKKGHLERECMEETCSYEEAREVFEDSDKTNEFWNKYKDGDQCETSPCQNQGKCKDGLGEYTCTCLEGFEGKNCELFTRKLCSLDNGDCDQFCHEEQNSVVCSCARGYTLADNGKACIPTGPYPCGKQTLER

Row | Compound | IC50 [µM]
1 | N-((2Z)-5-(1-(3-((6-Chloro-2-naphthyl)sulfonyl)propanoyl)-1-piperidinyl)-3-methyl-1,3-thiazol-2(3H)-ylidene)-N-methylamine [Example 46] | 0.03
2 | Cn1c(CN2CCN(C(=O)CCS(=O)(=O)c3ccc4cc(Cl)ccc4c3)CC2)csc1=N [Example 12, 4-((4-(3-((6-Chloro-2-naphthyl)sulfonyl)propanoyl)-1-piperazinyl)methyl)-3-methyl-1,3-thiazol-2(3H)-imine dihydrochloride] | 0.022
3 | C/N=c1\scc(CN2CCN(C(=O)CCS(=O)(=O)c3ccc4cc(Cl)ccc4c3)CC2)n1C [Example 5, N-((2Z)-4-((4-(3-((6-Chloro-2-naphthyl)sulfonyl)propanoyl)-1-piperazinyl)methyl)-3-methyl-1,3-thiazol-2(3H)-ylidene)-N-methylamine dihydrochloride] | 0.057
4 | Cn1cc(C2CCN(C(=O)CCS(=O)(=O)c3ccc4cc(Cl)ccc4c3)CC2)sc1=N [Example 58, 5-(1-(3-((6-Chloro-2-naphthyl)sulfonyl)propanoyl)-4-piperidinyl)-3-methyl-1,3-thiazol-2(3H)-imine] | 0.06
5 | O=C(CCS(=O)(=O)c1ccc2cc(Cl)ccc2c1)N1CCC(/N=c2\sccn2CCO)CC1 [Example 92, 2-((2Z)-2-((1-(3-((6-Chloro-2-naphthyl)sulfonyl)propanoyl)-4-piperidinyl)imino)-1,3-thiazol-3(2H)-yl)ethanol] | 0.047
6 | C/N=c1\sc(C2CCN(C(=O)CCS(=O)(=O)c3ccc4cc(Cl)ccc4c3)CC2)c(CO)n1C [Example 38] | 0.011
7 | C/N=c1\sc(C2CCN(C(=O)CCS(=O)(=O)c3ccc4cc(Cl)ccc4c3)CC2)c(C(=O)O)n1C [Example 68, (2Z)-5-(1-(3-((6-Chloro-2-naphthyl)sulfonyl)propanoyl)-1-piperidinyl)-3-methyl-2-(methylimino)-2,3-dihydro-1,3-thiazole-4-carboxylic acid] | 0.0083
8 | COC(=O)C1CN(CC2=CSC3=NCCN23)CCN1C(=O)CCS(=O)(=O)c1ccc2cc(Cl)ccc2c1 (stereo not shown) [Example 44, Methyl 1-(3-((6-chloro-2-naphthyl)sulfonyl)propanoyl)-4-(5,6-dihydroimidazo[2,1-b][1,3]thiazol-3-ylmethyl)piperazine-2-carboxylate] | 0.014
9 | C/N=c1\sc(C2CCN(C(=O)CCS(=O)(=O)c3ccc4cc(Cl)ccc4c3)CC2)c(C(=O)OC)n1C [Example 77, Methyl (2Z)-5-(1-(3-((6-chloro-2-naphthyl)sulfonyl)propanoyl)-1-piperidinyl)-3-methyl-2-(methylimino)-2,3-dihydro-1,3-thiazol-4-carboxylate] | 0.0094
10 | C/N=c1\sccn1CCC1CCN(C(=O)CCS(=O)(=O)c2ccc3cc(Cl)ccc3c2)CC1 [Example 83] | 0.0067
